In patent US7217730B2, “Method for the use of pyranoindole derivatives to treat infection with Hepatitis C virus” (Wyeth, priority 2002, dated 2007):

What was measured:
[1] = target: T1, NS5B from the BK strain (genotype 1b) (Hepatitis C virus genotype 1b, UniProt P26663); experiment: Hepatitis C polymerase inhibition, NS5B BK strain, 33P-GTP filter assay; assay type: biochemical; settings: Table 1B; NS5B BK strain; read-out: BK IC50
T1 construct: NS5B from the BK strain (genotype 1b) is expressed in E. coli as a protein in which the 21 C-terminal amino acids are replaced; made in house; host or cells: E. coli
T1 sequence (P26663 2420-2989): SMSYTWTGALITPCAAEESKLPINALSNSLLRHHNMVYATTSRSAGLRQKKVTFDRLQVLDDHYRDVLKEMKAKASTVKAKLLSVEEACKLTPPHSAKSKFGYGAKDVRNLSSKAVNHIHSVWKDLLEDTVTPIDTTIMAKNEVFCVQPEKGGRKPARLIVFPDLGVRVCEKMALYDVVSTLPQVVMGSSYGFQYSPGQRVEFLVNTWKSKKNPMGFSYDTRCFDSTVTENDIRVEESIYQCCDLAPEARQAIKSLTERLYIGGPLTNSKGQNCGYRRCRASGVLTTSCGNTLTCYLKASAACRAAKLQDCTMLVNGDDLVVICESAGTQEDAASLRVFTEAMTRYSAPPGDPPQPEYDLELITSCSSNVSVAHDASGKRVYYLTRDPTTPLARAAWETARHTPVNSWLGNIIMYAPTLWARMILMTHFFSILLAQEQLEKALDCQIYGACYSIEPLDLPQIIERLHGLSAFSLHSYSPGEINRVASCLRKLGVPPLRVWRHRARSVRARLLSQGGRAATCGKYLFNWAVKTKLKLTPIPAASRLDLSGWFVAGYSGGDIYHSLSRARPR
How it was run: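 E. coli-expressed NS5B (BK, genotype 1b) with the 21 C-terminal residues replaced by a linker-His6 tag was preincubated with compound for 15 min at room temperature. It then extended a hairpin-primed heteropolymeric RNA (~3 nM, ~760 nt product) with α-[33P]-GTP for 2 h at 22–25° C. The reaction was stopped with EDTA, and incorporated label was counted on filters.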

[2] = target: BB7 (RNA-dependent RNA polymerase hepatitis C virus protein sequence derived from HCV replicon) (Hepatitis C virus genotype 1b, UniProt Q9WMX2); experiment: Hepatitis C polymerase inhibition, BB7 sequence; assay type: biochemical; settings: Table 1B
Sequence of BB7 (RNA-dependent RNA polymerase hepatitis C virus protein sequence derived from HCV replicon) (Q9WMX2 2420-3010): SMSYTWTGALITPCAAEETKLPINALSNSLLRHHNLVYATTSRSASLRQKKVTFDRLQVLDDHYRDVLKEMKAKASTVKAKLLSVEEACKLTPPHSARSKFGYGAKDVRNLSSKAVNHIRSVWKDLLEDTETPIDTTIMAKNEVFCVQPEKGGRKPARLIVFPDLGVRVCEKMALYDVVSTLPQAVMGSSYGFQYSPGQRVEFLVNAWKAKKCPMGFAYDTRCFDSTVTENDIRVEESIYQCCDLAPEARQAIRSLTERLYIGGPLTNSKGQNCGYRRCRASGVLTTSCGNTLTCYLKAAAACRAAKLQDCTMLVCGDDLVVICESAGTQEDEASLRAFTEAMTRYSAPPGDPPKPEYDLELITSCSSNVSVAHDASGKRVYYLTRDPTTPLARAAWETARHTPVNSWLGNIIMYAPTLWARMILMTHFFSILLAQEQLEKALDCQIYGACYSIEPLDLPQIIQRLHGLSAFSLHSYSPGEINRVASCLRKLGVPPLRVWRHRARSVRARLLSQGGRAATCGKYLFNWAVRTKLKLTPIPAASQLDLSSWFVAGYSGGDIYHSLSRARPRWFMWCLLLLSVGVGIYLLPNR

Compound	IC50 [1] [µM]	IC50 [2] [µM]
CCCC1(C(=O)O)OCCc2c1[nH]c1c(C)cc(F)c(C#N)c21 (centres unmarked) [Example 339, (5-cyano-6-fluoro-8-methyl-1-propyl-1,3,4,9-tetrahydropyrano[3,4-b]indol-1-yl)carboxylic acid]	0.49	2.8
O=C(O)CC1(CC2CCCC2)OCCc2c1[nH]c1c(Cl)ccc(Cl)c21 (centres unmarked) [Example 258, (5,8-dichloro-1-cyclopentylmethyl-1,3,4,9-tetrahydropyrano[3,4-b]indol-1-yl)acetic acid]	9.4	14
CCCC1(CC(=O)O)OCCc2c1[nH]c1c(C)c(C(=O)NC)cc(C#N)c21 (centres unmarked) [Example 357, (5-cyano-8-methyl-7-methylcarbamoyl-1-propyl-1,3,4,9-tetrahydro-pyrano[3,4-b]indol-1-yl)-acetic acid]	1.3	0.97
C=CCCC1(CC(=O)O)OCCc2c1[nH]c1c(F)ccc(C#N)c21 (centres unmarked) [Example 302, [1-(3-butenyl)-5-cyano-8-fluoro-1,3,4,9-tetrahydropyrano[3,4-b]indol-1-yl]acetic acid]	4	18
CC[C@H](C)[C@]1(CC(=O)O)OCCc2c1[nH]c1c(C)ccc(C#N)c21 [Example 293, (1S,10S)-[5-cyano-8-methyl-1-(1-methylpropyl)-1,3,4,9-tetrahydropyrano[3,4-b]indol-1-yl]acetic acid]	> 30	> 30
CC[C@H](C)[C@@]1(C(=O)O)OCCc2c1[nH]c1c(F)ccc(C#N)c21 (racemic) [Example 348, (1R*,10S*)-[5-cyano-8-fluoro-1-(1-methylpropyl)-1,3,4,9-tetrahydropyrano[3,4-b]indol-1-yl]carboxylic acid]	> 30	> 30
[5-cyano-1-(1-ethylethyl)-8-fluoro-1,3,4,9-tetrahydropyrano[3,4-b]indol-1-yl]acetic acid [Example 311]	> 30	> 30
CCCNC(=O)c1cc(C#N)c2c3c([nH]c2c1C)C(CCC)(CC(=O)O)OCC3 (centres unmarked) [Example 354, (5-cyano-8-methyl-1-propyl-7-propylcarbamoyl-1,3,4,9-tetrahydro-pyrano[3,4-b]indol-1-yl)-acetic acid]	3	2
O=C(O)CC1(CCC(F)(F)F)OCCc2c1[nH]c1c(Cl)ccc(C(F)(F)F)c21 (centres unmarked) [Example 263, [8-chloro-5-trifluoromethyl-1-(3,3,3-trifluoropropyl)-1,3,4,9-tetrahydropyrano[3,4-b]indol-1-yl]acetic acid]	1.3	3.2
CCCC1(C(=O)O)OCCc2c1[nH]c1ccc(Cl)c(Cl)c21 (centres unmarked) [Example 328, (5,6-dichloro-1-propyl-1,3,4,9-tetrahydropyrano[3,4-b]indol-1-yl)carboxylic acid]	4.3	3.9
CCC1(CC(=O)O)OCCc2c1[nH]c1c(Cl)ccc(Cl)c21 (centres unmarked) [Example 243, (5,8-dichloro-1-ethyl-1,3,4,9-tetrahydropyrano[3,4-b]indol-1-yl)acetic acid]	6.3	10
CC[C@H](C)[C@]1(CC(=O)O)OCCc2c1[nH]c1c(F)ccc(C#N)c21 [Example 316, (1S,10S)-[5-cyano-8-fluoro-1-(1-methylpropyl)-1,3,4,9-tetrahydropyrano[3,4-b]indol-1-yl]acetic acid]	> 30	> 30
Cc1ccc(C#N)c2c3c([nH]c12)C(CC(=O)O)(C1CCC1)OCC3 (centres unmarked) [Example 284, (5-cyano-1-cyclobutyl-8-methyl-1,3,4,9-tetrahydropyrano[3,4-b]indol-1-yl)acetic acid]	1	2.3
(5-cyano-7-ethoxy-8-methyl-1-propyl-1,3,4,9-tetrahydro-pyrano[3,4-b]indol-1-yl)-acetic acid [Example 362]	0.11	0.07
CC[C@H](C)[C@@]1(CC(=O)O)OCCc2c1[nH]c1c(Cl)ccc(C#N)c21 [Example 325, (1R,10S)-[8-Chloro-5-cyano-1-(1-methylpropyl)-1,3,4,9-tetrahydropyrano[3,4-b]indol-1yl]acetic acid]	0.08	0.19
CCCC1(CC(=O)O)OCCc2c1[nH]c1c(Cl)ccc(C#N)c21 (centres unmarked) [Example 321, (8-chloro-5-cyano-1-propyl-1,3,4,9-tetrahydropyrano[3,4-b]indol-1-yl)acetic acid]	0.3	0.6
COCCC1(CC(=O)O)OCCc2c1[nH]c1c(Cl)ccc(Cl)c21 (centres unmarked) [Example 247, [5,8-dichloro-1-(2-methoxyethyl)-1,3,4,9-tetrahydropyrano[3,4-b]indol-1-yl]acetic acid]	> 24	18

Compound	IC50 [1] [µM]	IC50 [2] [µM]
O=C(O)CC1(C2CCC2)OCCc2c1[nH]c1ccc(Cl)c(Cl)c21 (centres unmarked) [Example 235, (5,6-dichloro-1-cyclobutyl-1,3,4,9-tetrahydropyrano[3,4-b]indol-1-yl)acetic acid]	5.2	5.4
N#CCCCC1(CC(=O)O)OCCc2c1[nH]c1c(Cl)ccc(Cl)c21 (centres unmarked) [Example 244, [5,8-dichloro-1-(3-cyanopropyl)-1,3,4,9-tetrahydropyrano[3,4-b]indol-1-yl)acetic acid]	0.3	1.8
N#Cc1ccc(F)c2[nH]c3c(c12)CCOC3(C(=O)O)C1CCCCC1 (centres unmarked) [Example 351, (5-cyano-1-cyclohexyl-8-fluoro-1,3,4,9-tetrahydropyrano[3,4-b]indol-1-yl)carboxylic acid]	> 30	> 30
CSCC1(CC(=O)O)OCCc2c1[nH]c1c(F)ccc(C#N)c21 (centres unmarked) [Example 305, (5-cyano-8-fluoro-1-methylthiomethyl-1,3,4,9-tetrahydropyrano[3,4-b]indol-1-yl)acetic acid]	> 30	> 30
COCC1(CC(=O)O)OCCc2c1[nH]c1ccc(Cl)c(Cl)c21 (centres unmarked) [Example 237, (5,6-Dichloro-1-methoxymethyl-1,3,4,9-tetrahydropyrano[3,4-b]indol-1-yl)acetic acid]	> 27	> 24
CC[C@H](C)[C@@]1(CC(=O)O)OCCc2c1[nH]c1c(C)ccc(C#N)c21 (racemic) [Example 289, (1R*,10S*)-[5-cyano-8-methyl-1-(1-methylpropyl)-1,3,4,9-tetrahydropyrano[3,4-b]indol-1-yl]acetic acid]	0.12	0.23
CCC(C)C1(CC(=O)O)OCCc2c1[nH]c1c(C(N)=O)ccc(C(F)(F)F)c21 [Example 278, (1R*,10S)-[8-aminocarbonyl-1-(1-methylpropyl)-5-trifluoromethyl-1,3,4,9-tetrahydropyrano[3,4-b]indol-1-yl]acetic acid]	15	23
(8-fluoro-5-nitro-1-propyl-1,3,4,9-tetrahydropyrano[3,4-b]indol-1-yl)carboxylic acid [Example 352]	0.9	2.8
CCOCC1(CC(=O)O)OCCc2c1[nH]c1c(Cl)ccc(Cl)c21 (centres unmarked) [Example 248, (5,8-dichloro-1-ethoxymethyl-1,3,4,9-tetrahydropyrano[3,4-b]indol-1-yl)acetic acid]	> 30	> 30
N#Cc1ccc(F)c2[nH]c3c(c12)CCOC3(CC(=O)O)CC1CCCC1 (centres unmarked) [Example 310, (5-cyano-1-cyclopentylmethyl-8-fluoro-1,3,4,9-tetrahydropyrano[3,4-b]indol-1-yl)acetic acid]	> 25	> 25
CCCC1(C(=O)O)OCCc2c1[nH]c1c(Cl)ccc(C#N)c21 (centres unmarked) [Example 341, (8-chloro-5-cyano-1-propyl-1,3,4,9-tetrahydropyrano[3,4-b]indol-1-yl)carboxylic acid]	1.7	3.6
O=C(O)CC1(C2CCCC2)OCCc2c1[nH]c1ccc(Cl)c(Cl)c21 (centres unmarked) [Example 236, (5,6-dichloro-1-cyclopentyl-1,3,4,9-tetrahydropyrano[3,4-b]indol-1-yl)acetic acid]	10	9.6
CCCC1(C(=O)O)OCCc2c1[nH]c1c(F)ccc(C(F)(F)F)c21 (centres unmarked) [Example 332, (8-fluoro-5-trifluoromethyl-1-propyl-1,3,4,9-tetrahydropyrano[3,4-b]indol-1-yl)carboxylic acid]	6.4	14
CCCC1(CC(=O)O)OCCc2c1[nH]c1c(C)c(OCCF)cc(C#N)c21 (centres unmarked) [Example 369, [5-cyano-7-(2-fluoro-ethoxy)-8-methyl-1-propyl-1,3,4,9-tetrahydro-pyrano[3,4-b]indol-1-yl]acetic acid]	0.004	0.01
CC[C@H](C)[C@@]1(CC(=O)O)OCCc2c1[nH]c1c(C)ccc(C#N)c21 [Example 292, (1R,10S)-[5-cyano-8-methyl-1-(1-methylpropyl)-1,3,4,9-tetrahydropyrano[3,4-b]indol-1-yl]acetic acid]	0.13	0.26
CC[C@H](C)[C@@]1(CC(=O)O)OCCc2c1[nH]c1c(F)ccc(C#N)c21 [Example 315, (1R,10S)-[5-cyano-8-fluoro-1-(1-methylpropyl)-1,3,4,9-tetrahydropyrano[3,4-b]indol-1-yl]acetic acid]	0.4	2.1
CC[C@H](C)[C@@]1(C(=O)O)OCCc2c1[nH]c1c(C)ccc(C#N)c21 (relative stereo) [Example 335, (1R*,10S*)-[5-cyano-8-methyl-(1-methylpropyl)-1,3,4,9-tetrahydropyrano[3,4-b]indol-1-yl]carboxylic acid]	> 30	> 30
